In patent publication US11555029B2, “PD-1/PD-L1 inhibitors” (Gilead Sciences, Inc., priority 2018, dated 2023):
Values joined by “and” are separate entries in the source; they are usually repeats but may differ in a detail not shown here. Equal entries are not always repeated.

Columns and labels:
[1] = test system: HBV-specific CD4+ T cells from CHB patient PBMCs; experiment: HBV-specific CD4+ T cell expansion and recall response assay in CHB patient PBMCs (IFN-γ, granzyme B by flow cytometry); type: cell-based, human
Method: (§1) Assays PBMC Isolation from Whole Blood PBMCs were isolated from whole blood using a standard Ficoll® Paque gradient. Briefly, 25-30 mL of blood was gently overlaid on top of 15 mL Ficoll® Paque Plus solution (GE Healthcare, Chicago, Ill.) in a 50 mL Falcon tube, and centrifuged in an Allegra X-14R (Beckman Coulter, Indianapolis, Ind.) at 520 g for 20 minutes at 25° C. […] Next, the cells were centrifuged at 520 g for 5 minutes and red blood cells (RBC) lysed for 5 minutes at room temperature using RBC Lysis Buffer (eBioscience, San Diego, Calif.). […] PBMCs were either subsequently used for the T cell expansion assay, or were cryopreserved with 10% DMSO in PBS before further use. CD8^+ and CD4^+ T Cell 7-Day Expansion and Recall Response Assay
(§2) PBMCs were seeded at 2-4×10^5 cells/well in 96-well round bottom plates (Corning, N.Y.). […] PBMCs were incubated for 7 days at 37° C. with 5% CO2 in a humidified incubator. […] To inhibit protein transport, 1 μg/mL brefeldin. A solution (Sigma) was added to each well. After overnight incubation, cells were processed for immunostaining and flow cytometry as described herein.
(§3) Washed cells were resuspended in Live/Dead Aquamine Stain (Invitrogen) per manufacturer's instructions to determine the viability of the cells by flow cytometry. Live/Dead Aqua stained PBMCs were washed twice with FACS staining buffer (1% FBS in PBS), and then incubated with 50 μL of Fc blocking reagent (BD Biosciences, Franklin Lakes, N.J.) for 10 minutes at room temperature. A mixture of antibodies (50 μL/well) described in Table 6 were added to the blocking solution for surface staining, and PBMCs were incubated with the antibodies for 40 minutes at 4° C. […] Cells were washed twice with the permeabilization reagent included in the FoxP3 staining kit and incubated with antibodies for intracellular staining of IFN-γ and GrB (Table 6) at 1.0 μg/mL. After 1 hour incubation at 4° C., PBMCs were centrifuged and washed twice before being resuspended in FACS buffer. Stained PBMCs were analyzed by flow cytometry using a BD LSRFortessa X-20 Cell Analyzer (Becton Dickinson). BD Comp Beads (BD Biosciences) were used as compensation controls. CD8^+ and CD4^+ T cells were identified by gating on the live Aquamine^−CD3^+CD8^+ and Aquamine^−CD3^+CD4^+ PBMC population respectively.
(§4) Flow cytometry data was analyzed using FlowJo Flow Cytometry Analysis Software v10 (TreeStar, Ashland, Oreg.). Data was exported and statistical analysis was performed using GraphPad Prism v6 (GraphPad Software, La Jolla, Calif.). Statistical significance relative to the DMSO control was calculated by two-tailed, paired t-test.

[2] = test system: HBV-specific CD8+ T cells from CHB patient PBMCs; experiment: HBV-specific CD8+ T cell expansion and recall response assay in CHB patient PBMCs (IFN-γ, granzyme B by flow cytometry); type: cell-based, human
Method: as §1, §2, §3, §4

[3] = 650 nM compound 139 or 10 μg/mL durvalumab, PBMCs from 9 of the 14 CHB donors (FIG. 1B)

COc1nc(-c2cccc(-c3cccc(-c4cnc(CNC[C@@H]5CCC(=O)N5)c(OC)n4)c3Cl)c2Cl)cnc1CNC[C@@H]1CCC(=O)N1 [compound 139]
increase of granzyme B (GrB)+ CD4+ T cells ([1]; 650 nM compound 139, HBV core peptide-stimulated PBMCs from CHB donors, vs DMSO): 1.8 fold
frequency of CD4+ IFN-γ+ T cells ([1]; 650 nM compound 139 or 10 μg/mL durvalumab treated PBMCs): 2.5%
frequency of GrB+CD4+ T cells ([1]; 650 nM compound 139 or 10 μg/mL durvalumab, DMSO 3.5%): 4.7%
IFN-γ and Granzyme B Production in chronic hepatitis B (CHB) CD4+ T Cells ([1]; FIG. 2A and FIG. 2B): enhances
increase of granzyme B (GrB)+ CD8+ T cells ([2]; 650 nM compound 139, HBV core peptide-stimulated PBMCs from 14 CHB donors, vs DMSO): 1.2 fold
increase of GrB+CD8+ T cells, comparison with durvalumab [2, 3]: 1.2 fold
increase of IFN-γ+CD8+ T cells, comparison with durvalumab [2, 3]: 2.5 fold
IFN-γ and Granzyme B Production in chronic hepatitis B (CHB) CD8+ T Cells ([2]; FIG. 1A and FIG. 1B): enhances
% IFN-γ+ (IFN-γ+ CD8+ T cells) ([2]; individual CHB donor, HBV core peptide-stimulated PBMCs, compound 139 650 nM): 0.94% and 0.41% and 0.61% and 0.90% and 0.30%
